Test results taken from patent US20260022142A1, “MACROCYCLIC IMMUNOMODULATORS” (Bristol-Myers Squibb Company, priority 2022, published 2026).
Numbered stars: 1 amine (or outer) side, 2 acyl side, 3 side chain; on linkers, the order of the positions; unused ones are H or OH. Bridge positions count the residues as written; N and C are the ends. Square brackets hold non-standard residues; d marks the D form. Peptide text beside a SMILES is read from it. * marks the point of attachment. ξ: configuration not given here. Phe(4-COOH) = N[C@@H](Cc1ccc(C(=O)O)cc1)C(=O)O; Bip = N[C@@H](Cc1ccc(-c2ccccc2)cc1)C(=O)O; X18 = O=C(C(CC1CCC(F)(F)CC1)N[*:1])[*:2]; Phe(3-F) = N[C@@H](Cc1cccc(F)c1)C(=O)O; Phe(3-Me) = Cc1cccc(C[C@H](N)C(=O)O)c1; X5 = CC(C)(CCN)[C@H](N[*:1])C(=O)[*:2]; NH(CH2)12COOH = O=C(O)CCCCCCCCCCCCN*; X4 = O=C([C@@H](N[*:1])C1CNC1)[*:2]; Val(3-OH) = CC(C)(O)[C@H](N)C(=O)O; X15 = C[C@H](N)C(N[*:1])C(=O)[*:2]; X17 = O=C(C(CN1CCOCC1)N[*:1])[*:2]; X8 = CC(C)(F)C(N[*:1])C(=O)[*:2]; Aad = N[C@@H](CCCC(=O)O)C(=O)O; Cha = N[C@@H](CC1CCCCC1)C(=O)O; Thr(3ξ) = CC(O)[C@H](N)C(=O)O; Carboxymethyl = O=C(O)C*; Orn = NCCC[C@H](N)C(=O)O; Aun = NCCCCCCCCCCC(=O)O; Dab = NCC[C@H](N)C(=O)O; Nva = CCC[C@H](N)C(=O)O; Dap = NC[C@H](N)C(=O)O; AEEA = NCCOCCOCC(=O)O

Molecular target: T1, PD-1/PD-L1 interaction (PE-labeled human PD-L1-Ig binding to Jurkat cell line over-expressing human PD-1) (Homo sapiens, UniProt Q15116)
T1 construct: expressed in transfected cells; host or cells: Jurkat
T1 sequence (Q15116 25-288): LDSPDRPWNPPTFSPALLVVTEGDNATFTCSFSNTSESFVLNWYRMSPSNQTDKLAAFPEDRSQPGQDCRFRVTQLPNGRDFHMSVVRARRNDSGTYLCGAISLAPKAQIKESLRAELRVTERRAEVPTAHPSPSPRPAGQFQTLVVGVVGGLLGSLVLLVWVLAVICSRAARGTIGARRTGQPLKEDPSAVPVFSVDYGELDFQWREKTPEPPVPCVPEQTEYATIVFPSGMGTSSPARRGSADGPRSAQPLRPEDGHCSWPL
Experiment: Jurkat-PD-1 Cell Binding High-Content Screening Assay (CBA)
Type: cell-based
Settings: Jurkat cell line over-expressing human PD-1; PE-labeled PD-L1-Ig 20 nM final; read-out: Jurkat hPD1-PDL1 IC50
Procedure, shortened: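 Read-out is high-content imaging of cell-bound phycoerythrin-tagged PD-L1-Ig on fixed, Hoechst-counterstained Jurkat cells that over-express human PD-1. Compound exposure lasts 2 h at 37° C before the labeled ligand (20 nM final) is added for a further hour.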

Structure (SMILES) | IC50
Cc1cccc(C[C@@H]2NC(=O)[C@H](CC(=O)O)NC(=O)[C@H](Cc3ccc(OCC(=O)O)cc3)NC(=O)[C@H](CCCNC(=N)N)NC(=O)CSC[C@@H](C(=O)N[C@@H](CCN)C(=O)NCCOCCOCC(=O)NCCCCCCCCCCCCC(=O)O)NC(=O)[C@H](CO)NC(=O)[C@H](C(C)(C)O)NC(=O)[C@H](CC3CCCCC3)NC(=O)[C@H](CCN)NC(=O)[C@@H](CC(C)C)NC(=O)[C@H](CCCN)NC(=O)[C@H](Cc3ccc(OCC(=O)O)cc3)NC(=O)[C@H](Cc3ccc(-c4ccccc4)cc3)NC(=O)[C@H](Cc3ccc(OCC(=O)O)cc3)NC2=O)c1 [Compound 2253] ({CH2CO}-RY(Carboxymethyl)D[Phe(3-Me)]Y(Carboxymethyl)[Bip]Y(Carboxymethyl)[Orn][dL][Dab][Cha][Val(3-OH)]SC[Dab][AEEA]-{NH(CH2)12COOH}; thioether N-14) | 9.1 nM
CCC[C@@H]1NC(=O)CSC[C@@H](C(=O)N[C@@H](CCN)C(=O)NCCOCCOCC(=O)NCCCCCCCCCCCCC(=O)O)NC(=O)[C@H](CO)NC(=O)[C@H](C(C)(C)O)NC(=O)[C@H](CC2CCCCC2)NC(=O)[C@H](CCN)NC(=O)[C@@H](CC(C)C)NC(=O)[C@H](CCCN)NC(=O)[C@H](Cc2ccc(OCC(=O)O)cc2)NC(=O)[C@H](Cc2ccc(-c3ccccc3)cc2)NC(=O)[C@H](Cc2ccc(OCC(=O)O)cc2)NC(=O)[C@H](Cc2cccc(C)c2)NC(=O)[C@H](CC(=O)O)NC(=O)[C@H](Cc2ccc(C(=O)O)cc2)NC1=O [Compound 2254] ({CH2CO}-[Nva][Phe(4-COOH)]D[Phe(3-Me)]Y(Carboxymethyl)[Bip]Y(Carboxymethyl)[Orn][dL][Dab][Cha][Val(3-OH)]SC[Dab][AEEA]-{NH(CH2)12COOH}; thioether N-14) | 10.1 nM
Cc1cccc(C[C@@H]2NC(=O)[C@H](CC(=O)O)NC(=O)[C@H](Cc3ccc(OCC(=O)O)cc3)NC(=O)[C@H](C3CNC3)NC(=O)CSC[C@@H](C(=O)N[C@@H](CCN)C(=O)NCCCCCCCCCCCCC(=O)O)NC(=O)[C@H](CO)NC(=O)[C@H](C(C)(C)O)NC(=O)[C@H](CC3CCCCC3)NC(=O)[C@H](CCN)NC(=O)[C@@H](CC(C)C)NC(=O)[C@H](CCCN)NC(=O)[C@H](Cc3ccc(OCC(=O)O)cc3)NC(=O)[C@H](Cc3ccc(-c4ccccc4)cc3)NC(=O)[C@H](Cc3ccc(OCC(=O)O)cc3)NC2=O)c1 [Compound 2256] ({CH2CO}-[X4]Y(Carboxymethyl)D[Phe(3-Me)]Y(Carboxymethyl)[Bip]Y(Carboxymethyl)[Orn][dL][Dab][Cha][Val(3-OH)]SC[Dab]-{NH(CH2)12COOH}; thioether N-14) | 13.6 nM
Cc1cccc(C[C@@H]2NC(=O)[C@H](CC(=O)O)NC(=O)[C@H](Cc3ccc(OCC(=O)O)cc3)NC(=O)C([C@H](C)N)NC(=O)CSC[C@@H](C(=O)N[C@@H](CCN)C(=O)NCCCCCCCCCCCCC(=O)O)NC(=O)[C@H](CO)NC(=O)[C@H](C(C)(C)O)NC(=O)[C@H](CC3CCCCC3)NC(=O)[C@H](CCN)NC(=O)[C@@H](CC(C)C)NC(=O)[C@H](CCCN)NC(=O)[C@H](Cc3ccc(OCC(=O)O)cc3)NC(=O)[C@H](Cc3ccc(-c4ccccc4)cc3)NC(=O)[C@H](Cc3ccc(OCC(=O)O)cc3)NC2=O)c1 (stereo partly drawn) [Compound 2257] ({CH2CO}-[X15]Y(Carboxymethyl)D[Phe(3-Me)]Y(Carboxymethyl)[Bip]Y(Carboxymethyl)[Orn][dL][Dab][Cha][Val(3-OH)]SC[Dab]-{NH(CH2)12COOH}; thioether N-14) | 11.1 nM
Cc1cccc(C[C@@H]2NC(=O)[C@H](CC(=O)O)NC(=O)[C@H](Cc3ccc(OCC(=O)O)cc3)NC(=O)C(CC3CCC(F)(F)CC3)NC(=O)CSC[C@@H](C(=O)N[C@@H](CCN)C(=O)NCCCCCCCCCCCCC(=O)O)NC(=O)[C@H](CO)NC(=O)[C@H](C(C)(C)O)NC(=O)[C@H](CC3CCCCC3)NC(=O)[C@H](CCN)NC(=O)[C@@H](CC(C)C)NC(=O)[C@H](CCCN)NC(=O)[C@H](Cc3ccc(OCC(=O)O)cc3)NC(=O)[C@H](Cc3ccc(-c4ccccc4)cc3)NC(=O)[C@H](Cc3ccc(OCC(=O)O)cc3)NC2=O)c1 (stereo partly drawn) [Compound 2258] ({CH2CO}-[X18]Y(Carboxymethyl)D[Phe(3-Me)]Y(Carboxymethyl)[Bip]Y(Carboxymethyl)[Orn][dL][Dab][Cha][Val(3-OH)]SC[Dab]-{NH(CH2)12COOH}; thioether N-14) | 48.9 nM
Cc1cccc(C[C@@H]2NC(=O)[C@H](CC(=O)O)NC(=O)[C@H](Cc3ccc(OCC(=O)O)cc3)NC(=O)[C@H](CCCC(=O)O)NC(=O)CSC[C@@H](C(=O)N[C@@H](CCN)C(=O)NCCCCCCCCCCCCC(=O)O)NC(=O)[C@H](CO)NC(=O)[C@H](C(C)(C)O)NC(=O)[C@H](CC3CCCCC3)NC(=O)[C@H](CCN)NC(=O)[C@@H](CC(C)C)NC(=O)[C@H](CCCN)NC(=O)[C@H](Cc3ccc(OCC(=O)O)cc3)NC(=O)[C@H](Cc3ccc(-c4ccccc4)cc3)NC(=O)[C@H](Cc3ccc(OCC(=O)O)cc3)NC2=O)c1 [Compound 2259] ({CH2CO}-[Aad]Y(Carboxymethyl)D[Phe(3-Me)]Y(Carboxymethyl)[Bip]Y(Carboxymethyl)[Orn][dL][Dab][Cha][Val(3-OH)]SC[Dab]-{NH(CH2)12COOH}; thioether N-14) | 17.9 nM
Cc1cccc(C[C@@H]2NC(=O)[C@H](CC(=O)O)NC(=O)[C@H](Cc3ccc(OCC(=O)O)cc3)NC(=O)C(CN3CCOCC3)NC(=O)CSC[C@@H](C(=O)N[C@@H](CCN)C(=O)NCCCCCCCCCCCCC(=O)O)NC(=O)[C@H](CO)NC(=O)[C@H](C(C)(C)O)NC(=O)[C@H](CC3CCCCC3)NC(=O)[C@H](CCN)NC(=O)[C@@H](CC(C)C)NC(=O)[C@H](CCCN)NC(=O)[C@H](Cc3ccc(OCC(=O)O)cc3)NC(=O)[C@H](Cc3ccc(-c4ccccc4)cc3)NC(=O)[C@H](Cc3ccc(OCC(=O)O)cc3)NC2=O)c1 (stereo partly drawn) [Compound 2260] ({CH2CO}-[X17]Y(Carboxymethyl)D[Phe(3-Me)]Y(Carboxymethyl)[Bip]Y(Carboxymethyl)[Orn][dL][Dab][Cha][Val(3-OH)]SC[Dab]-{NH(CH2)12COOH}; thioether N-14) | 9.4 nM
Cc1cccc(C[C@@H]2NC(=O)[C@H](CC(=O)O)NC(=O)[C@H](Cc3ccc(OCC(=O)O)cc3)NC(=O)[C@H](CCN)NC(=O)CSC[C@@H](C(=O)N[C@H](C(=O)NCCCCCCCCCCC(=O)O)C(C)(C)CCN)NC(=O)[C@H](CO)NC(=O)[C@H](C(C)(C)O)NC(=O)[C@H](CC3CCCCC3)NC(=O)[C@H](CCN)NC(=O)[C@@H](CC(C)C)NC(=O)[C@H](CCCN)NC(=O)[C@H](Cc3ccc(OCC(=O)O)cc3)NC(=O)[C@H](Cc3ccc(-c4ccccc4)cc3)NC(=O)[C@H](Cc3ccc(OCC(=O)O)cc3)NC2=O)c1 [Compound 2261] ({CH2CO}-[Dab]Y(Carboxymethyl)D[Phe(3-Me)]Y(Carboxymethyl)[Bip]Y(Carboxymethyl)[Orn][dL][Dab][Cha][Val(3-OH)]SC[X5][Aun]-OH; thioether N-14) | 207 nM
Cc1cccc(C[C@@H]2NC(=O)[C@H](CC(=O)O)NC(=O)[C@H](Cc3ccc(OCC(=O)O)cc3)NC(=O)[C@H](CN)NC(=O)CSC[C@@H](C(=O)N[C@@H](CCN)C(=O)NCCOCCOCC(=O)NCCCCCCCCCCC(=O)O)NC(=O)[C@H](CCCN)NC(=O)[C@H](C(C)C)NC(=O)[C@H](CC3CCCCC3)NC(=O)[C@H](CCN)NC(=O)[C@@H](CC(C)C)NC(=O)[C@H](CCCN)NC(=O)[C@H](Cc3ccc(O)cc3)NC(=O)[C@H](Cc3ccc(-c4ccccc4)cc3)NC(=O)[C@H](Cc3cccc(F)c3)NC2=O)c1 [Compound 2262] ({CH2CO}-[Dap]Y(Carboxymethyl)D[Phe(3-Me)][Phe(3-F)][Bip]Y[Orn][dL][Dab][Cha]V[Orn]C[Dab][AEEA][Aun]-OH; thioether N-14) | 8.3 nM
Cc1cccc(C[C@@H]2NC(=O)[C@H](CC(=O)O)NC(=O)[C@H](Cc3ccc(OCC(=O)O)cc3)NC(=O)[C@H](Cc3ccc(OCC(=O)O)cc3)NC(=O)CSC[C@@H](C(=O)N[C@@H](CCN)C(=O)NCCCCCCCCCCC(=O)O)NC(=O)[C@H](C(C)O)NC(=O)[C@H](C(C)C)NC(=O)[C@H](CC3CCCCC3)NC(=O)[C@H](CCN)NC(=O)[C@@H](CC(C)C)NC(=O)[C@H](CCCN)NC(=O)[C@H](Cc3ccc(OCC(=O)O)cc3)NC(=O)[C@H](Cc3ccc(-c4ccccc4)cc3)NC(=O)[C@H](C(C)C)NC2=O)c1 (stereo partly drawn) [Compound 2263] ({CH2CO}-Y(Carboxymethyl)Y(Carboxymethyl)D[Phe(3-Me)]V[Bip]Y(Carboxymethyl)[Orn][dL][Dab][Cha]V[Thr(3ξ)]C[Dab][Aun]-OH; thioether N-14) | 38.2 nM
Cc1cccc(C[C@@H]2NC(=O)[C@H](CC(=O)O)NC(=O)[C@H](Cc3ccc(OCC(=O)O)cc3)NC(=O)[C@H](CCCNC(=N)N)NC(=O)CSC[C@@H](C(=O)N[C@@H](CCN)C(=O)NCCCCCCCCCCC(=O)O)NC(=O)[C@H]([C@@H](C)O)NC(=O)C(C(C)(C)F)NC(=O)[C@H](CC3CCCCC3)NC(=O)[C@H](CCN)NC(=O)[C@@H](CC(C)C)NC(=O)[C@H](CCCN)NC(=O)[C@H](Cc3ccc(OCC(=O)O)cc3)NC(=O)[C@H](Cc3ccc(-c4ccccc4)cc3)NC(=O)[C@H](Cc3ccc(O)cc3)NC2=O)c1 (stereo partly drawn) [Compound 2264] ({CH2CO}-RY(Carboxymethyl)D[Phe(3-Me)]Y[Bip]Y(Carboxymethyl)[Orn][dL][Dab][Cha][X8]TC[Dab][Aun]-OH; thioether N-14) | 13.1 nM
CC(C)C[C@H]1NC(=O)[C@H](CCCN)NC(=O)[C@H](Cc2ccc(O)cc2)NC(=O)[C@H](Cc2ccc(-c3ccccc3)cc2)NC(=O)[C@H](Cc2ccc(O)cc2)NC(=O)[C@H](Cc2c[nH]c3ccccc23)NC(=O)[C@H](CC(=O)O)NC(=O)[C@H](Cc2ccc(C(=O)O)cc2)NC(=O)[C@H](Cc2ccc(OCC(=O)O)cc2)NC(=O)CSC[C@@H](C(=O)N[C@@H](CCN)C(=O)NCCOCCOCC(=O)NCCCCCCCCCCC(=O)O)NC(=O)[C@H](CCCCN)NC(=O)[C@H](Cc2ccc(O)cc2)NC(=O)[C@H](CC2CCCCC2)NC(=O)[C@H](CCN)NC1=O [Compound 2501] ({CH2CO}-Y(Carboxymethyl)[Phe(4-COOH)]DWY[Bip]Y[Orn][dL][Dab][Cha]YKC[Dab][AEEA][Aun]-OH; thioether N-14) | 28.4 nM
